# Reference: patent US8648066B2 (Exelixis, Inc., priority 2009, dated 2014)
# Target: mTOR/GbL/Raptor (mTORC1) (Homo sapiens, UniProt P42345)
# Test: mTOR/GbL/Raptor (mTORC1) ELISA assay
# Assay type: biochemical
# Settings: phosphorylation of 4E-BP1; 0.2 nM mTORC1, 10 μM ATP; read-out: IC50 in this assay (mTORC1 ELISA)
# Procedure, shortened: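 ELISA read-out: phospho-4E-BP1 captured on Ni-chelate plates and detected with anti-phospho antibody plus HRP-anti-IgG luminescence. The kinase step ran 120 min at ambient temperature with 0.2 nM human mTORC1, 10 µM ATP, 50 nM His-4E-BP1, 10 mM MnCl2, pH 7.2 HEPES.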
row,IC50,SMILES
1,≤ 10 nM,"Cc1nc2cc(-c3ccc4c(c3)CN(c3nc(CN(C)C)nc(C)c3Cc3ccc(F)cc3)CCO4)cnc2[nH]1 [Example 348, 1-{5-[(4-fluorophenyl)methyl]-4-methyl-6-[7-(2-methyl-3H-imidazo[4,5-b]pyridin-6-yl)-2,3-dihydro-1,4-benzoxazepin-4(5H)-yl]pyrimidin-2-yl}-N,N-dimethylmethanamine]"
2,250 to 1000 nM,"CCc1c(C)nc(CN(C)C)nc1N1CCOc2ccc(-c3ccc4[nH]c(C)nc4c3)cc2C1 [Example 349, 1-{5-ethyl-4-methyl-6-[7-(2-methyl-1H-benzimidazol-5-yl)-2,3-dihydro-1,4-benzoxazepin-4(5H)-yl]pyrimidin-2-yl}-N,N-dimethylmethanamine]"
3,50 to 250 nM,"CCc1c(C)nc(CN(C)C)nc1N1CCOc2ccc(-c3cnc4[nH]c(C)nc4c3)cc2C1 [Example 350, 1-{5-ethyl-4-methyl-6-[7-(2-methyl-3H-imidazo[4,5-b]pyridin-6-yl)-2,3-dihydro-1,4-benzoxazepin-4(5H)-yl]pyrimidin}-N,N-dimethylmethanamine]"
4,10 to 50 nM,"Cc1nc2ccc(-c3ccc4c(c3)CN(c3nc(CN(C)C)nc5c3CC(C)(C)CC5)CCO4)cc2[nH]1 [Example 351, 1-{6,6-dimethyl-4-[7-(2-methyl-1H-benzimidazol-6-yl)-2,3-dihydro-1,4-benzoxazepin-4(5H)-yl]-5,6,7,8-tetrahydroquinazolin-2-yl}-N,N-dimethylmethanamine]"
5,≤ 10 nM,"Cc1nc2ncc(-c3ccc4c(c3)CN(c3nc(CN)nc5c3CC(C)(C)CC5)CCO4)cc2[nH]1 [Example 352, 1-{6,6-dimethyl-4-[7-(2-methyl-1H-imidazo[4,5-b]pyridin-6-yl)-2,3-dihydro-1,4-benzoxazepin-4(5H)-yl]-5,6,7,8-tetrahydroquinazolin-2-yl}methanamine]"
6,≤ 10 nM,"Cc1nc2ncc(-c3ccc4c(c3)CN(c3nc(CN(C)C)nc5c3CC(C)(C)CC5)CCO4)cc2[nH]1 [Example 353, 1-{6,6-dimethyl-4-[7-(2-methyl-1H-imidazo[4,5-b]pyridin-6-yl)-2,3-dihydro-1,4-benzoxazepin-4(5H)-yl]-5,6,7,8-tetrahydroquinazolin-2-yl}-N,N-dimethylmethanamine]"
7,≤ 10 nM,"CNCc1nc2c(c(N3CCOc4ccc(-c5cnc6nc(C)[nH]c6c5)cc4C3)n1)CC(C)(C)CC2 [Example 354, 1-{6,6-dimethyl-4-[7-(2-methyl-1H-imidazo[4,5-b]pyridin-6-yl)-2,3-dihydro-1,4-benzoxazepin-4(5H)-yl]-5,6,7,8-tetrahydroquinazolin-2-yl}-N-methylmethanamine]"
8,50 to 250 nM,"COC1Cc2nc(CN(C)C)nc(N3CCOc4ccc(-c5cnc6nc(C)[nH]c6c5)cc4C3)c2CC1(C)C (centres unmarked) [Example 355, 1-{6,6-dimethyl-4-[7-(2-methyl-1H-imidazo[4,5-b]pyridin-6-yl)-2,3-dihydro-1,4-benzoxazepin-4(5H)-yl]-7-(methyloxy)-5,6,7,8-tetrahydroquinazolin-2-yl}-N,N-dimethylmethanamine]"
9,50 to 250 nM,"Cc1nc2cc(-c3ccc4c(c3)CN(c3nc(C(C)N(C)C)nc5c3CC(C)(C)CC5)CCO4)cnc2[nH]1 (centres unmarked) [Example 356, 1-{6,6-dimethyl-4-[7-(2-methyl-3H-imidazo[4,5-b]pyridin-6-yl)-2,3-dihydro-1,4-benzoxazepin-4(5H)-yl]-5,6,7,8-tetrahydroquinazolin-2-yl}-N,N-dimethylethanamine]"
10,250 to 1000 nM,"CN(C)Cc1nc2ncc(-c3ccc4c(c3)CN(c3ncnc5c3CC(C)(C)CC5)CCO4)cc2[nH]1 [Example 357, 1-{6-[4-(6,6-dimethyl-5,6,7,8-tetrahydroquinazolin-4-yl)-2,3,4,5-tetrahydro-1,4-benzoxazepin-7-yl]-1H-imidazo[4,5-b]pyridin-2-yl}-N,N-dimethylmethanamine]"
11,10 to 50 nM,"CNCc1nc2ncc(-c3ccc4c(c3)CN(c3ncnc5c3CC(C)(C)CC5)CCO4)cc2[nH]1 [Example 358, 1-{6-[4-(6,6-dimethyl-5,6,7,8-tetrahydroquinazolin-4-yl)-2,3,4,5-tetrahydro-1,4-benzoxazepin-7-yl]-1H-imidazo[4,5-b]pyridin-2-yl}-N-methylmethanamine]"
12,250 to 1000 nM,"Cc1nc2ncc(-c3ccc4c(c3)CN(c3nc(CN(C)C)nc5ccc(F)cc35)CCO4)cc2[nH]1 [Example 359, 1-{6-fluoro-4-[7-(2-methyl-1H-imidazo[4,5-b]pyridin-6-yl)-2,3-dihydro-1,4-benzoxazepin-4(5H)-yl]quinazolin-2-yl}-N,N-dimethylmethanamine]"
13,10 to 50 nM,"Cc1nc2ncc(-c3ccc4c(c3)CN(c3nc(CNC(C)C5CC5)nc5c3CC(C)(C)CC5)CCO4)cc2[nH]1 (centres unmarked) [Example 360, 1-cyclopropyl-N-({6,6-dimethyl-4-[7-(2-methyl-1H-imidazo[4,5-b]pyridin-6-yl)-2,3-dihydro-1,4-benzoxazepin-4(5H)-yl]-5,6,7,8-tetrahydroquinazolin-2-yl}methyl)ethanamine]"
14,≥ 2000 nM,"CNC(=O)Nc1ccc(-c2ccc3c(c2)CN(c2nc(C)nc4cc(OC)ccc24)CCO3)cc1 [Example 361, 1-methyl-3-(4-{4-[2-methyl-7-(methyloxy)quinazolin-4-yl]-2,3,4,5-tetrahydro-1,4-benzoxazepin-7-yl}phenyl)urea]"
15,10 to 50 nM,"CNS(=O)(=O)c1cc(-c2ccc3c(c2)CN(c2ncnc(C)c2Cc2ccc(F)cc2)CCO3)cnc1N [Example 363, 2-amino-5-(4-{5-[(4-fluorophenyl)methyl]-6-methylpyrimidin-4-yl}-2,3,4,5-tetrahydro-1,4-benzoxazepin-7-yl)-N-methylpyridine-3-sulfonamide]"
16,10 to 50 nM,"CC(C)NS(=O)(=O)c1cc(-c2ccc3c(c2)CN(c2ncnc4c2CC(C)(C)CC4)CCO3)cnc1N [Example 364, 2-amino-5-[4-(6,6-dimethyl-5,6,7,8-tetrahydroquinazolin-4-yl)-2,3,4,5-tetrahydro-1,4-benzoxazepin-7-yl]-N-(1-methylethyl)pyridin-3-sulfonamide]"
17,10 to 50 nM,"CC1(C)CCc2ncnc(N3CCOc4ccc(-c5cnc(N)c(S(=O)(=O)NCC(F)(F)F)c5)cc4C3)c2C1 [Example 365, 2-amino-5-[4-(6,6-dimethyl-5,6,7,8-tetrahydroquinazolin-4-yl)-2,3,4,5-tetrahydro-1,4-benzoxazepin-7-yl]-N-(2,2,2-trifluoroethyl)pyridine-3-sulfonamide]"
18,10 to 50 nM,"CC1(C)CCc2ncnc(N3CCOc4ccc(-c5cnc(N)c(S(=O)(=O)NCCF)c5)cc4C3)c2C1 [Example 366, 2-amino-5-[4-(6,6-dimethyl-5,6,7,8-tetrahydroquinazolin-4-yl)-2,3,4,5-tetrahydro-1,4-benzoxazepin-7-yl]-N-(2-fluoroethyl)pyridine-3-sulfonamide]"
19,10 to 50 nM,"CC1(C)CCc2ncnc(N3CCOc4ccc(-c5cnc(N)c(S(=O)(=O)NC(C)(C)CO)c5)cc4C3)c2C1 [Example 367, 2-amino-5-[4-(6,6-dimethyl-5,6,7,8-tetrahydroquinazolin-4-yl)-2,3,4,5-tetrahydro-1,4-benzoxazepin-7-yl]-N-(2-hydroxy-1,1-dimethylethyl)pyridine-3-sulfonamide]"
20,10 to 50 nM,"CC(CO)NS(=O)(=O)c1cc(-c2ccc3c(c2)CN(c2ncnc4c2CC(C)(C)CC4)CCO3)cnc1N (centres unmarked) [Example 368, 2-amino-5-[4-(6,6-dimethyl-5,6,7,8-tetrahydroquinazolin-4-yl)-2,3,4,5-tetrahydro-1,4-benzoxazepin-7-yl]-N-(2-hydroxy-1-methylethyl)pyridine-3-sulfonamide]"
21,≤ 10 nM,"CC(C)(O)CNS(=O)(=O)c1cc(-c2ccc3c(c2)CN(c2ncnc4c2CC(C)(C)CC4)CCO3)cnc1N [Example 369, 2-amino-5-[4-(6,6-dimethyl-5,6,7,8-tetrahydroquinazolin-4-yl)-2,3,4,5-tetrahydro-1,4-benzoxazepin-7-yl]-N-(2-hydroxy-2-methylpropyl)pyridine-3-sulfonamide]"
22,10 to 50 nM,"CN(CCO)S(=O)(=O)c1cc(-c2ccc3c(c2)CN(c2ncnc4c2CC(C)(C)CC4)CCO3)cnc1N [Example 370, 2-amino-5-[4-(6,6-dimethyl-5,6,7,8-tetrahydroquinazolin-4-yl)-2,3,4,5-tetrahydro-1,4-benzoxazepin-7-yl]-N-(2-hydroxyethyl)-N-methylpyridine-3-sulfonamide]"
23,≤ 10 nM,"CC1(C)CCc2ncnc(N3CCOc4ccc(-c5cnc(N)c(S(=O)(=O)NCCO)c5)cc4C3)c2C1 [Example 371, 2-amino-5-[4-(6,6-dimethyl-5,6,7,8-tetrahydroquinazolin-4-yl)-2,3,4,5-tetrahydro-1,4-benzoxazepin-7-yl]-N-(2-hydroxyethyl)pyridine-3-sulfonamide]"
24,10 to 50 nM,"CC(O)CNS(=O)(=O)c1cc(-c2ccc3c(c2)CN(c2ncnc4c2CC(C)(C)CC4)CCO3)cnc1N (centres unmarked) [Example 372, 2-amino-5-[4-(6,6-dimethyl-5,6,7,8-tetrahydroquinazolin-4-yl)-2,3,4,5-tetrahydro-1,4-benzoxazepin-7-yl]-N-(2-hydroxypropyl)pyridine-2-sulfonamide]"
25,≤ 10 nM,"CC1(C)CCc2ncnc(N3CCOc4ccc(-c5cnc(N)c(S(=O)(=O)NCC(O)C(F)(F)F)c5)cc4C3)c2C1 (centres unmarked) [Example 373, 2-amino-5-[4-(6,6-dimethyl-5,6,7,8-tetrahydroquinazolin-4-yl)-2,3,4,5-tetrahydro-1,4-benzoxazepin-7-yl]-N-(3,3,3-trifluoro-2-hydroxypropyl)pyridine-3-sulfonamide]"
26,50 to 250 nM,"CC(C)(CO)CNS(=O)(=O)c1cc(-c2ccc3c(c2)CN(c2ncnc4c2CC(C)(C)CC4)CCO3)cnc1N [Example 374, 2-amino-5-[4-(6,6-dimethyl-5,6,7,8-tetrahydroquinazolin-4-yl)-2,3,4,5-tetrahydro-1,4-benzoxazepin-7-yl]-N-(3-hydroxy-2,2-dimethylpropyl)pyridine-3-sulfonamide]"
